Reference: a melting point compilation (Tetko et al.)

melting point [°C] | SMILES
276 | CC(=O)Nc1cc(NC(C)=O)c(C=Cc2ccccc2)c([N+](=O)[O-])c1C=Cc1ccccc1
84 | CS(=O)(=O)CC#N
124 | CC1OC(=O)C(C)OC1=O (racemic)
178 | O=C(c1ccc([N+](=O)[O-])cc1)c1noc(-c2ccc(Br)cc2)c1S(=O)(=O)c1ccccc1
82.5 | FC(F)(F)C(F)(F)C(F)(F)C(F)(F)C(F)(F)C(F)(F)C(F)(F)C(F)(F)CCI
184 to 185 | C/C(=N\c1ccccc1)c1c(O)c2ccccc2n(-c2ccccc2)c1=O
78 to 80 | Cc1ccc(/C=C(\C#N)c2nc(-c3ccccc3)cs2)cc1
136 to 143 | CCOC(=O)c1cnc(NCc2ccccc2)s1
257 to 260 | C#CC1(O)CCC2C3CC=C4C=C(C(C)(C)C(=O)O)CCC4(C)C3CCC21C (centres undefined)
53 to 58 | C1=CC2OC1c1ccccc12
69 | CCCn1cnc2c1c(=O)n(CCCCC(C)=O)c(=O)n2C
100 to 101 | CCOC(=O)c1c(NC(=O)CN2CCCCC2)sc2c1CCCC2
57 | C[C@]12CCC(=O)C=C1CCC[C@@H]2O
188 | Nc1ccc(Cl)c(C(=O)O)c1
-95.3 | FC(Cl)C(Cl)(Cl)Cl (centres undefined)
323 to 325 | CC1CC(=O)c2c(F)c(F)cc3c(=O)c(C(=O)O)cn1c23 (centres undefined)
186 | N=c1oc2ccccc2cc1-c1nc2ccccc2s1
129 to 131 | CC(C)(C)OC(=O)NCC(N)=S
122 | O=C(OCC(=O)N1CCC(O)CC1)c1ccccc1
71 | Cc1cc(C)c([N+](=O)[O-])cc1C
-139 | C=CC/C=C/C
124 | COc1ccc(C(=O)C2=NOC3C(=O)N(c4ccc(Br)cc4)C(=O)C23)cc1 (centres undefined)
77 to 79 | O=[N+]([O-])c1ccccc1N1CCCCC1
177 | CC(CC(=O)O)C1CCC2C3CCC4CCCCC4(C)C3CCC12C (centres undefined)
20 | Cc1ccc2c(c1)CCC(C)C2 (centres undefined)
107 to 112 | O=C(CC(=O)c1cc(Cl)ccc1O)c1ccccc1

melting point [°C] | SMILES
123 | O=C(Nc1nc(-c2ccccc2)cs1)c1ccccc1
28 | COc1ccccc1CN=C=S
285 to 288 | CN(C)c1ccc(C=C2SC(=S)NC2=O)cc1
55 | Oc1c(Br)cc(F)cc1Br
110 | C=CCN(CC=C)C(SC)=C(C#N)C(N)=O
277 | CC1C(NC(=O)C(=NOC(C)(C)C(=O)O)c2csc(N)n2)C(=O)N1S(=O)(=O)O (centres undefined)
96.8 | CCn1c(=O)n(CC)c(=O)n(CC)c1=O
192 to 195 | CC(NC(=O)COCCN1C(=O)c2ccccc2C1=O)C(=O)NC(CCC(=O)O)C(=O)O (centres undefined)
-100 | CCCC(CC(OCC)OCC)OCC (centres undefined)
172 to 175 | O=C(Cl)c1ccc(-c2ncccn2)cc1
222 to 224 | O=C1/C(=N\O)C(c2ccc([N+](=O)[O-])cc2)=NN1c1ccccc1
128 to 130 | O=[N+]([O-])c1ccc2c(c1)CCN2S(=O)(=O)c1ccccc1
178 to 180 | CCOC(=O)c1oc(C(=O)OCC)c(O)c1O
85 | COC(=O)C(C)N(C(=O)c1ccccc1)c1ccc(F)c(Cl)c1 (centres undefined)
48 to 49 | Cc1cccc(CS(=O)(=O)Cl)c1
224 to 229 | O=C(Nc1ccc2cc(OC(=O)c3ccccc3)ccc2c1)c1ccccc1
55 | FC(F)(F)Sc1ccc(CBr)cc1
118 to 120 | CC12CC3CC(Br)(C1)CC(C(=O)O)(C3)C2 (centres undefined)
44 | Cc1cc(C)c([N+](=O)[O-])c(C)c1
18 to 20 | Cc1ccc([N+](=O)[O-])c(I)c1
307 to 309 | CCCOc1c2cccc1Cc1cc(Br)cc(c1O)Cc1cccc(c1OCCC)Cc1cc(Br)cc(c1O)C2
82.2 to 83.5 | CC(C)(C)OC(=O)C(C(=O)Cc1ccccc1)c1ccccc1 (centres undefined)
18 | O=C(Cl)c1c(Cl)cccc1Cl
176 | CSc1n[nH]c(N)c1C(N)=O
59 | Oc1ccc(SC(F)(F)F)cc1
104 | O=C(O)Cc1ccc(F)cc1Cl

melting point [°C] | SMILES
291 | O=C1c2ccccc2C(=O)c2cc3ccccc3cc21
99 to 101 | CC(=O)OCC1OC(n2ncc(=O)[nH]c2=O)C(OC(C)=O)C1OC(C)=O (centres undefined)
63 | Cc1cc(C)c(NC(=O)C(F)(F)C(F)(F)C(F)(F)C(F)(F)C(F)(F)C(F)(F)C(F)(F)C(F)(F)F)c(C)c1
118 | C(=Cc1ccccn1)c1ccccn1
189 | Cc1c(C)c2c(c(C)c1O)CCC(C)(C(=O)O)O2 (centres undefined)
202 | CC(NC(=O)COC(=O)c1ccccc1)C(N)=O (centres undefined)
151 | CN(C)c1ccc(/C=C(\C#N)c2nc3ccccc3n2C)cc1
268 | NC(=O)c1nccnc1C(N)=O
50.5 | NN(c1ccccc1)c1ccccc1
215 | Nc1ccc(N=Nc2ccc([N+](=O)[O-])cc2)cc1
200 | CC(=O)Nc1ccc([N+](=O)[O-])cn1
158 | O=c1cnn(C2OC(CO)C(O)C2O)c(=O)[nH]1 (centres undefined)
147 | COc1ccc(C(=O)C2=NOC3C(=O)N(c4cc(Cl)ccc4Cl)C(=O)C23)cc1 (centres undefined)
170 | S=c1cc(-c2ccccc2)oc(-c2ccccc2)c1
180 | CC(=O)[C@H]1CC[C@H]2[C@@H]3CC=C4C[C@@H](OC(=O)CCC(=O)O)CC[C@]4(C)[C@H]3CC[C@]12C
169 | O=C(c1noc(-c2ccc(Cl)cc2)c1S(=O)(=O)c1ccccc1)c1cccc2ccccc12
197 to 199 | Nc1nc2ccccc2n1Cc1ccc(Cl)cc1
179 | COc1ccc(C(=O)c2nn3c(nc(=O)c4ccccc43)s2)cc1
76 | Cc1cccc(N2CC(CO)OC2=O)c1 (centres undefined)
196 to 197 | O=C(O)c1cnc2ccccn12
99 to 100 | O=C(Nc1ccccc1)C1CCCC/C1=C\Cc1ccccc1 (centres undefined)
114 | Oc1c(Br)cc(Br)c(Br)c1Br
28.5 | Fc1ccc(Br)nc1
161 to 163 | CNc1ccccc1C(N)=O
78 | Cc1ccc(S(=O)(=O)OCc2c(F)c(F)c(F)c(F)c2F)cc1
115 | Cc1ccc2[nH]c(C)cc2c1

melting point [°C] | SMILES
217 | CC1CC2C3CCC4=CC(=O)C=CC4(C)C3(F)C(O)CC2(C)C1C(=O)CO (centres undefined)
105 | CCOC(=O)c1ccc(N/C=C2\C(=O)C3(C)CCC2C3(C)C)cc1 (centres undefined)
174 | Oc1ccc(Nc2ccc(O)cc2)cc1
-48.8 | CC1COC(=O)O1 (centres undefined)
144 to 145 | COc1cc(C(=O)c2ccc(-c3ccccc3)cc2)c([N+](=O)[O-])cc1OC
156 to 157 | NCc1ccccc1-n1cccc1
182 to 189 | Sc1ccncc1
105 to 107 | CSc1nc2ccc(N)cc2s1
85 | CC(Cc1ccccc1)=NNc1ccccc1
44 | Cc1c(F)ccc(C#N)c1F
95 | CN1C(=O)C=CC1=O
146 | CC1(C)N=C(N)N=C(N)N1c1ccc(Cl)cc1
234 | NCCCC(O)(P(=O)(O)O)P(=O)(O)O
-26 | O=C1CCCCC1
41 to 43 | Nc1c(F)cc(Cl)cc1Br
55 to 60 | CCN(CCO)S(=O)(=O)C(F)(F)C(F)(F)C(F)(F)C(F)(F)C(F)(F)C(F)(F)C(F)(F)C(F)(F)F
132 to 135 | NC(=S)c1ccc2nonc2c1
4 | CCCCCCN1CCCC1=O
80 | CC1(C(=O)O)CC2C=CC1C2 (centres undefined)
234 | Cn1c([N+](=O)[O-])cnc1C=Cc1ccnc(N)n1
113 | COC(=O)[C@H](CC(=O)O)Cc1cccc2ccccc12
118 | Cc1c2ccccc2nc2ccccc12
120 to 122 | CC1(C)OC2OC(CO)C3OC(C)(C)OC3C2O1 (centres undefined)
204 to 205 | Cc1nc2ccccc2c(C(=O)O)c1N
194 | O=C1c2ccccc2C(=O)c2c(O)cccc21
239 | BrC(c1ccccc1)C(Br)c1ccccc1 (centres undefined)

SMILES | melting point [°C]
COC(=O)c1coc(CCl)n1 | 74 to 76
CC(C)N(C(=O)SCC(Cl)=C(Cl)Cl)C(C)C | 29
CCOP(=O)(NC(C)C)Oc1ccc(SC)c(C)c1 (centres undefined) | 49
N#CSC#N | 63.5
COC1=CC(=O)OC(C=Cc2ccccc2)C1 (centres undefined) | 106
ClCc1nnc(C2CC2)s1 | 80 to 84
CC(CCc1ccccc1)NC(C)C(O)c1cc(I)c(O)c(I)c1 (centres undefined) | 212
OC1CN2CCCC(O)C2C1O (centres undefined) | 144
COc1ccc(P2(=S)Nn3c(nnc3C(F)(F)F)S2)cc1 (centres undefined) | 211
COC1CCC(C2C(=O)NC(=O)NC2=O)CC1 (centres undefined) | 215
O=C(O)Cc1ccc(CBr)cc1 | 179
O=[N+]([O-])c1ccc(SCl)c([N+](=O)[O-])c1 | 99
O=S1(=O)OCCO1 | 99
O=S(=O)(F)Cc1ccccc1 | 93
Brc1c2ccccc2cc2ccccc12 | 100
COc1cc2c(cc1OCc1ccccc1)C(C)NCC2 (centres undefined) | 91
NC(=O)C(Cl)(Cl)Cl | 142
ClCc1cc(-c2ccco2)on1 | 47 to 49
CCCCCCCCCCCCC1=C(OC(C)=O)C(=O)c2ccccc2C1=O | 59.6
CC(C)CCCC(C(=O)O)C1=CCC2(C)C(CCC3C4CCC(O)C4(C)CCC32)C1 (centres undefined) | 193
